≈ marks a conversion by molar mass, not a printed value.
What follows are compounds tested on Mycobacterium tuberculosis (assay: Antitubercular activity against Mycobacterium tuberculosis H37Rv […] by microplate alamar blue assay).
Format: functional
With `CSCCC(NC(=O)NC(Cc1c[nH]c2ccccc12)C(=O)O)C(=O)NC(C(=O)N/C=C1\C[C@@H](O)[C@H](n2ccc(=O)[nH]c2=O)O1)C(C)N(C)C(=O)C(Cc1cccc(O)c1)N(C)C` (stereo not given in full) the MIC was 16 µg/mL (≈ 17.9 µM). `CCNC(Cc1cccc(O)c1)C(=O)N(C)C(C)C(NC(=O)C(CCSC)NC(=O)NC(Cc1c[nH]c2ccccc12)C(=O)O)C(=O)N/C=C1\C[C@@H](O)[C@H](n2ccc(=O)[nH]c2=O)O1` (stereo not given in full) gave an MIC of over 16 µg/mL. `CCCNC(Cc1cccc(O)c1)C(=O)N(C)C(C)C(NC(=O)C(CCSC)NC(=O)NC(Cc1c[nH]c2ccccc12)C(=O)O)C(=O)N/C=C1\C[C@@H](O)[C@H](n2ccc(=O)[nH]c2=O)O1` (stereo not given in full) showed an MIC of over 16 µg/mL. With `CSCCC(NC(=O)NC(Cc1c[nH]c2ccccc12)C(=O)O)C(=O)NC(C(=O)N/C=C1\C[C@@H](O)[C@H](n2ccc(=O)[nH]c2=O)O1)C(C)N(C)C(=O)C(Cc1cccc(O)c1)NC(C)C` (stereo not given in full) the MIC was 8 µg/mL (≈ 8.83 µM). `CCCCNC(Cc1cccc(O)c1)C(=O)N(C)C(C)C(NC(=O)C(CCSC)NC(=O)NC(Cc1c[nH]c2ccccc12)C(=O)O)C(=O)N/C=C1\C[C@@H](O)[C@H](n2ccc(=O)[nH]c2=O)O1` (stereo not given in full) gave an MIC of over 16 µg/mL. Compound `CCCCCNC(Cc1cccc(O)c1)C(=O)N(C)C(C)C(NC(=O)C(CCSC)NC(=O)NC(Cc1c[nH]c2ccccc12)C(=O)O)C(=O)N/C=C1\C[C@@H](O)[C@H](n2ccc(=O)[nH]c2=O)O1` (stereo not given in full) has an MIC of over 16 µg/mL. For `CSCCC(NC(=O)NC(Cc1c[nH]c2ccccc12)C(=O)O)C(=O)NC(C(=O)N/C=C1\C[C@@H](O)[C@H](n2ccc(=O)[nH]c2=O)O1)C(C)N(C)C(=O)C(Cc1cccc(O)c1)NC(=O)CCl` (stereo not given in full), the MIC was over 16 µg/mL. With `CSCCC(NC(=O)NC(Cc1c[nH]c2ccccc12)C(=O)O)C(=O)NC(C(=O)N/C=C1\C[C@@H](O)[C@H](n2ccc(=O)[nH]c2=O)O1)C(C)N(C)C(=O)C(Cc1cccc(O)c1)NC(=O)c1ccccc1` (stereo not given in full) the MIC was over 16 µg/mL. `COC(=O)NC(Cc1cccc(O)c1)C(=O)N(C)C(C)C(NC(=O)C(CCSC)NC(=O)NC(Cc1c[nH]c2ccccc12)C(=O)O)C(=O)N/C=C1\C[C@@H](O)[C@H](n2ccc(=O)[nH]c2=O)O1` (stereo not given in full) gave an MIC of over 16 µg/mL. `CCOC(=O)NC(Cc1cccc(O)c1)C(=O)N(C)C(C)C(NC(=O)C(CCSC)NC(=O)NC(Cc1c[nH]c2ccccc12)C(=O)O)C(=O)N/C=C1\C[C@@H](O)[C@H](n2ccc(=O)[nH]c2=O)O1` (stereo not given in full) gave an MIC of over 16 µg/mL. Compound `CSCCC(NC(=O)NC(Cc1c[nH]c2ccccc12)C(=O)O)C(=O)NC(C(=O)N/C=C1\C[C@@H](O)[C@H](n2ccc(=O)[nH]c2=O)O1)C(C)N(C)C(=O)C(Cc1cccc(O)c1)NC(=O)OCc1ccccc1` (stereo not given in full) has an MIC of over 16 µg/mL. For `CSCCC(NC(=O)NC(Cc1c[nH]c2ccccc12)C(=O)O)C(=O)NC(C(=O)N/C=C1\C[C@@H](O)[C@H](n2ccc(=O)[nH]c2=O)O1)C(C)N(C)C(=O)C(Cc1cccc(O)c1)NS(C)(=O)=O` (stereo not given in full), the MIC was over 16 µg/mL. In the case of `CSCCC(NC(=O)NC(Cc1c[nH]c2ccccc12)C(=O)O)C(=O)NC(C(=O)N/C=C1\C[C@@H](O)[C@H](n2ccc(=O)[nH]c2=O)O1)C(C)N(C)C(=O)C(Cc1cccc(O)c1)NS(=O)(=O)c1ccccc1` (stereo not given in full), the MIC is reported as over 16 µg/mL. For `CSCCC(NC(=O)NC(Cc1c[nH]c2ccccc12)C(=O)O)C(=O)NC(C(=O)N/C=C1\C[C@@H](O)[C@H](n2ccc(=O)[nH]c2=O)O1)C(C)N(C)C(=O)C(Cc1cccc(O)c1)NS(=O)(=O)c1ccc(C)cc1` (stereo not given in full), the MIC was over 16 µg/mL. Compound `COc1ccc(S(=O)(=O)NC(Cc2cccc(O)c2)C(=O)N(C)C(C)C(NC(=O)C(CCSC)NC(=O)NC(Cc2c[nH]c3ccccc23)C(=O)O)C(=O)N/C=C2\C[C@@H](O)[C@H](n3ccc(=O)[nH]c3=O)O2)cc1` (stereo not given in full) has an MIC of over 16 µg/mL. For `CSCCC(NC(=O)NC(Cc1c[nH]c2ccccc12)C(=O)O)C(=O)NC(C(=O)N/C=C1\C[C@@H](O)[C@H](n2ccc(=O)[nH]c2=O)O1)C(C)N(C)C(=O)C(Cc1cccc(OC(C)=O)c1)NC(C)=O` (stereo not given in full), the MIC was over 16 µg/mL. `CSCCC(NC(=O)NC(Cc1c[nH]c2ccccc12)C(=O)O)C(=O)NC(C(=O)N/C=C1\C[C@@H](OC(C)=O)[C@H](n2ccc(=O)[nH]c2=O)O1)C(C)N(C)C(=O)C(Cc1cccc(OC(C)=O)c1)NC(C)=O` (stereo not given in full) was tested, and the MIC was over 16 µg/mL. For `NNC(=O)c1ccncc1` [ISONIAZID], the MIC was 0.05 µg/mL (≈ 0.365 µM). With `CO[C@H]1/C=C/O[C@@]2(C)Oc3c(C)c(O)c4c(O)c(c(/C=N/N5CCN(C)CC5)c(O)c4c3C2=O)NC(=O)/C(C)=C\C=C\[C@H](C)[C@H](O)[C@@H](C)[C@@H](O)[C@@H](C)[C@H](OC(C)=O)[C@@H]1C` [RIFAMPIN] the MIC was 0.12 µg/mL (≈ 0.146 µM). `CSCCC(NC(=O)NC(Cc1c[nH]c2ccccc12)C(=O)O)C(=O)NC(C(=O)N/C=C1\C[C@@H](O)[C@H](n2ccc(=O)[nH]c2=O)O1)C(C)N(C)C(=O)C(N)Cc1cccc(O)c1` (stereo not given in full) [SANSANMYCIN A] gave an MIC of 16 µg/mL (≈ 18.5 µM).

Source: ChEMBL document CHEMBL1909588, “Synthesis and in vitro antitubercular evaluation of novel sansanmycin derivatives” (2011)
